# Test system: caterpillars of the armyworm (Spodoptera frugiperda)
# Experiment: Spodoptera frugiperda spray test (SPODFR)
# Type: in vivo
# Conditions: 100 g/ha, spray, after 7 days
# Protocol: Spodoptera frugiperda—Spray Test (SPODFR) Solvent: 78.0 parts by weight of acetone • • 1.5 parts by weight of dimethylformamide Emulsifier: alkylaryl polyglycol ether To produce a suitable active compound formulation, 1 part by weight of active compound is dissolved using the specified parts by weight of solvent and made up with water containing an emulsifier concentration of 1000 ppm until the desired concentration is attained. To produce further test concentrations, the preparation is diluted with emulsifier-containing water. Leaf discs of maize (Zea mays) are sprayed with an active compound formulation of the desired concentration and, after drying, populated with caterpillars of the armyworm (Spodoptera frugiperda). After 7 days, the efficacy in % is determined 100% means that all the caterpillars have been killed; 0% means that no caterpillars have been killed. Spodoptera frugiperda—Spray Test (SPODFR) Solvent: 78.0 parts by weight of acetone • • 1.5 parts by weight of dimethylformamide Emulsifier: alkylaryl polyglycol ether To produce a suitable active compound formulation, 1 part by weight of active compound is dissolved using the specified parts by weight of solvent and made up with water containing an emulsifier concentration of 1000 ppm until the desired concentration is attained. To produce further test concentrations, the preparation is diluted with emulsifier-containing water. Leaf discs of maize (Zea mays) are sprayed with an active compound formulation of the desired concentration and, after drying, populated with caterpillars of the armyworm (Spodoptera frugiperda). After the desired period of time, the efficacy in % is determined. 100% means that all the caterpillars have been killed; 0% means that no caterpillars have been killed.
row,Compound,efficacy
1,Cn1c(C(=O)NC(c2cc(Cl)c(F)c(Cl)c2F)C(F)(F)F)cc2cc(C(=O)NC3(C(N)=S)CC3)c(Cl)cc21 (stereo not drawn) [I-08],100%
2,CCn1c(C(=O)NC(c2cccc(Cl)c2F)C(F)(F)F)cc2cc(C(=O)NC3(C(N)=S)CC3)c(Cl)cc21 (stereo not drawn) [I-11],100%
3,C#CCn1c(C(=O)NC(c2cc(Cl)c(F)c(Cl)c2F)C(F)(F)F)cc2cc(C(=O)NC3(C(N)=S)CC3)c(Cl)cc21 (stereo not drawn) [I-12],100%

# Same assay, conditions: SPODFR, 0.8 g/ha, 7 dat
row,Compound,% efficacy
1,Cn1c(C(=O)NC(c2cc(Cl)c(F)c(Cl)c2F)C(F)(F)F)cc2cc(C(=O)NC3(C(N)=S)CC3)c(Cl)cc21 (stereo not drawn) [I-08],100%
2,C#CCn1c(C(=O)NC(c2cc(Cl)c(F)c(Cl)c2F)C(F)(F)F)cc2cc(C(=O)NC3(C(N)=S)CC3)c(Cl)cc21 (stereo not drawn) [I-12],100%

# Same assay, conditions: SPODFR, 4 g/ha, 7 dat
row,Compound,% efficacy
1,Cn1c(C(=O)NC(c2cc(Cl)c(F)c(Cl)c2F)C(F)(F)F)cc2cc(C(=O)NC3(C(N)=S)CC3)c(Cl)cc21 (stereo not drawn) [I-08],100%
2,C#CCn1c(C(=O)NC(c2cc(Cl)c(F)c(Cl)c2F)C(F)(F)F)cc2cc(C(=O)NC3(C(N)=S)CC3)c(Cl)cc21 (stereo not drawn) [I-12],100%

# Test system: not listed separately
# Experiment: log P by HPLC (EEC directive 79/831 Annex V.A8)
# Type: physicochemical
# Conditions: HPLC, reversed-phase column (C18), 43° C., acidic range pH 2.7
# Protocol: a) The determination of the M^+ by LC-MS in the acidic range is effected at pH 2.7, acetonitrile (contains 0.1% formic acid) and water as eluents; linear gradient from 10% acetonitrile to 95% acetonitrile, instrument: Agilent 1100 LC system, Agilent MSD system, HTS PAL. The log P values reported in the tables and Preparation Examples above were determined in accordance with EEC directive 79/831 Annex V.A8 by HPLC (High Performance Liquid Chromatography) using a reversed-phase column (C18). Temperature 43° C. The calibration is effected with unbranched alkan-2-ones (having 3 to 16 carbon atoms), for which the logP values are known.
row,Compound,log P
1,Cn1c(C(=O)NC(c2cc(Cl)c(F)c(Cl)c2F)C(F)(F)F)cc2cc(C(=O)NC3(C(N)=S)CC3)c(Cl)cc21 (stereo not drawn) [I-08],3.94
2,CCn1c(C(=O)NC(c2cccc(Cl)c2F)C(F)(F)F)cc2cc(C(=O)NC3(C(N)=S)CC3)c(Cl)cc21 (stereo not drawn) [I-11],3.69
3,C#CCn1c(C(=O)NC(c2cc(Cl)c(F)c(Cl)c2F)C(F)(F)F)cc2cc(C(=O)NC3(C(N)=S)CC3)c(Cl)cc21 (stereo not drawn) [I-12],3.94

# Test system: adult cat fleas (Ctenocephalides felis)
# Experiment: Ctenocephalides felis oral test (CTECFE)
# Type: in vivo
# Conditions: 100 ppm, oral in cattle blood, after 2 days
# Protocol: Ctenocephalides felis-Oral Test ([…]) Solvent: dimethyl sulphoxide To produce a suitable active compound formulation, 10 mg of active compound are mixed with 0.5 ml of dimethyl sulphoxide. Dilution with citrated cattle blood gives the desired concentration. About 20 unfed adult cat fleas (Ctenocephalides felis) are placed into a chamber which is closed at the top and bottom with gauze. A metal cylinder whose bottom end is closed with parafilm is placed onto the chamber. The cylinder contains the blood/active compound preparation, which can be imbibed by the fleas through the parafilm membrane. After 2 days, the kill in % is determined 100% means that all of the fleas have been killed; 0% means that none of the fleas have been killed.
row,Compound,efficacy (kill in %)
1,Cn1c(C(=O)NC(c2cc(Cl)c(F)c(Cl)c2F)C(F)(F)F)cc2cc(C(=O)NC3(C(N)=S)CC3)c(Cl)cc21 (stereo not drawn) [I-08],100%
2,CCn1c(C(=O)NC(c2cccc(Cl)c2F)C(F)(F)F)cc2cc(C(=O)NC3(C(N)=S)CC3)c(Cl)cc21 (stereo not drawn) [I-11],100%
3,C#CCn1c(C(=O)NC(c2cc(Cl)c(F)c(Cl)c2F)C(F)(F)F)cc2cc(C(=O)NC3(C(N)=S)CC3)c(Cl)cc21 (stereo not drawn) [I-12],100%

# Test system: greenhouse red spider mite (Tetranychus urticae)
# Experiment: Tetranychus urticae spray test, OP-resistant (TETRUR)
# Type: in vivo
# Conditions: 100 g/ha, spray, after 6 days
# Protocol: Tetranychus urticae—Spray Test, OP-Resistant (TETRUR)
# (§1) Solvent: 78.0 parts by weight of acetone • • 1.5 parts by weight of dimethylformamide
# (§2) Emulsifier: alkylaryl polyglycol ether
# (§3) To produce a suitable active compound formulation, 1 part by weight of active compound is dissolved using the specified parts by weight of solvent and made up with water containing an emulsifier concentration of 1000 ppm until the desired concentration is attained. To produce further test concentrations, the preparation is diluted with emulsifier-containing water.
# Discs of bean leaves (Phaseolus vulgaris) infested by all stages of the greenhouse red spider mite (Tetranychus urticae) are sprayed with an active compound formulation of the desired concentration.
# After 6 days, the efficacy in % is determined 100% means that all the spider mites have been killed; 0% means that none of the spider mites have been killed.
# Tetranychus urticae—Spray Test; OP-Resistant (TETRUR)
# After the desired period of time, the efficacy in % is determined 100% means that all the spider mites have been killed; 0% means that none of the spider mites have been killed.
row,Compound,efficacy
1,Cn1c(C(=O)NC(c2cc(Cl)c(F)c(Cl)c2F)C(F)(F)F)cc2cc(C(=O)NC3(C(N)=S)CC3)c(Cl)cc21 (stereo not drawn) [I-08],100%
2,CCn1c(C(=O)NC(c2cccc(Cl)c2F)C(F)(F)F)cc2cc(C(=O)NC3(C(N)=S)CC3)c(Cl)cc21 (stereo not drawn) [I-11],100%

# Test system: larvae of the mustard beetle (Phaedon cochleariae)
# Experiment: Phaedon cochleariae spray test (PHAECO)
# Type: in vivo
# Conditions: 100 g/ha, after 7 days
# Protocol: Phaedon cochleariae—Spray Test (PHAECO)
# as §1, §2, §3
# After 7 days, the efficacy in % is determined. 100% means that all the beetle larvae have been killed; 0% means that no beetle larvae have been killed.
row,Compound,efficacy
1,Cn1c(C(=O)NC(c2cc(Cl)c(F)c(Cl)c2F)C(F)(F)F)cc2cc(C(=O)NC3(C(N)=S)CC3)c(Cl)cc21 (stereo not drawn) [I-08],100%
2,CCn1c(C(=O)NC(c2cccc(Cl)c2F)C(F)(F)F)cc2cc(C(=O)NC3(C(N)=S)CC3)c(Cl)cc21 (stereo not drawn) [I-11],100%
3,C#CCn1c(C(=O)NC(c2cc(Cl)c(F)c(Cl)c2F)C(F)(F)F)cc2cc(C(=O)NC3(C(N)=S)CC3)c(Cl)cc21 (stereo not drawn) [I-12],100%

# Test system: engorged adult female cattle ticks (Boophilus microplus)
# Experiment: Boophilus microplus injection test (BOOPMI inj)
# Type: in vivo
# Conditions: assessed after 7 days
# Protocol: Boophilus microplus Injection Test (BOOPMI inj) Solvent: dimethyl sulphoxide To produce a suitable active compound formulation, 10 mg of active compound are mixed with 0.5 ml of solvent and the concentrate is diluted with solvent to the desired concentration. 1 μl of the active compound solution is injected into the abdomen of 5 engorged adult female cattle ticks (Boophilus microplus). The animals are transferred into dishes and kept in a climate-controlled room. The efficacy is assessed after 7 days by laying of fertile eggs. Eggs which are not visibly fertile are stored in a climate-controlled cabinet until the larvae hatch after about 42 days. An efficacy of 100% means that none of the ticks has laid any fertile eggs; 0% means that all the eggs are fertile.
row,Compound,efficacy (laying of fertile eggs)
1,Cn1c(C(=O)NC(c2cc(Cl)c(F)c(Cl)c2F)C(F)(F)F)cc2cc(C(=O)NC3(C(N)=S)CC3)c(Cl)cc21 (stereo not drawn) [I-08],100%
2,CCn1c(C(=O)NC(c2cccc(Cl)c2F)C(F)(F)F)cc2cc(C(=O)NC3(C(N)=S)CC3)c(Cl)cc21 (stereo not drawn) [I-11],100%
3,C#CCn1c(C(=O)NC(c2cc(Cl)c(F)c(Cl)c2F)C(F)(F)F)cc2cc(C(=O)NC3(C(N)=S)CC3)c(Cl)cc21 (stereo not drawn) [I-12],100%

# Test system: L1 larvae of the Australian sheep blowfly (Lucilia cuprina)
# Experiment: Lucilia cuprina test (LUCICU)
# Type: in vivo
# Conditions: 100 ppm, after 2 days
# Protocol: Lucilia cuprina Test (LUCICU) Solvent: dimethyl sulphoxide To produce a suitable active compound formulation, 10 mg of active compound are mixed with 0.5 ml of dimethyl sulphoxide, and the concentrate is diluted with water to the desired concentration. About 20 L1 larvae of the Australian sheep blowfly (Lucilia cuprina) are transferred into a test vessel containing minced horsemeat and the active compound preparation of the desired concentration. After 2 days, the kill in % is determined 100% means that all the larvae have been killed; 0% means that none of the larvae have been killed.
row,Compound,efficacy (kill in %)
1,Cn1c(C(=O)NC(c2cc(Cl)c(F)c(Cl)c2F)C(F)(F)F)cc2cc(C(=O)NC3(C(N)=S)CC3)c(Cl)cc21 (stereo not drawn) [I-08],100%
2,C#CCn1c(C(=O)NC(c2cc(Cl)c(F)c(Cl)c2F)C(F)(F)F)cc2cc(C(=O)NC3(C(N)=S)CC3)c(Cl)cc21 (stereo not drawn) [I-12],100%

# Test system: adult houseflies (Musca domestica)
# Experiment: Musca domestica test (MUSCDO)
# Type: in vivo
# Conditions: 100 ppm, after 2 days
# Protocol: Musca domestica Test (MUSCDO) Solvent: dimethyl sulphoxide To produce a suitable active compound formulation, 10 mg of active compound are mixed with 0.5 ml of dimethyl sulphoxide, and the concentrate is diluted with water to the desired concentration. Vessels containing a sponge treated with sugar solution and the active compound preparation of the desired concentration are populated with 10 adult houseflies (Musca domestica). After 2 days, the kill in % is determined. 100% means that all of the flies have been killed; 0% means that none of the flies have been killed.
row,Compound,efficacy (kill in %)
1,C#CCn1c(C(=O)NC(c2cc(Cl)c(F)c(Cl)c2F)C(F)(F)F)cc2cc(C(=O)NC3(C(N)=S)CC3)c(Cl)cc21 (stereo not drawn) [I-12],100%

# Source: patent US9802895B2, “Indole and benzimidazolecarboxamides as insecticides and acaricides” (BAYER CROPSCIENCE AKTIENGESELLSCHAFT, priority 2014, dated 2017)
